Assay results reported in ChEMBL document CHEMBL5096206, “From natural products to HDAC inhibitors: An overview of drug discovery and design strategy” (Bioorg Med Chem, 2021).
Values after ≈ are worked out from the molar mass of the structure shown.

Legend:
Histone deacetylase 4 [1] = biological target: T1, Histone deacetylase 4 (Homo sapiens, UniProt P56524); test: Inhibition of HDAC4 in human HeLa cells incubated for 1 hr by mass spectrometry method; type: cell-based
Histone deacetylase 1 [2] = biological target: T2, Histone deacetylase 1 (Homo sapiens, UniProt Q13547); test: Inhibition of recombinant HDAC1 (unknown origin) using AMC-K(Ac)GL as substrate by fluorescence based analysis
T2 sequence (Q13547 whole entry): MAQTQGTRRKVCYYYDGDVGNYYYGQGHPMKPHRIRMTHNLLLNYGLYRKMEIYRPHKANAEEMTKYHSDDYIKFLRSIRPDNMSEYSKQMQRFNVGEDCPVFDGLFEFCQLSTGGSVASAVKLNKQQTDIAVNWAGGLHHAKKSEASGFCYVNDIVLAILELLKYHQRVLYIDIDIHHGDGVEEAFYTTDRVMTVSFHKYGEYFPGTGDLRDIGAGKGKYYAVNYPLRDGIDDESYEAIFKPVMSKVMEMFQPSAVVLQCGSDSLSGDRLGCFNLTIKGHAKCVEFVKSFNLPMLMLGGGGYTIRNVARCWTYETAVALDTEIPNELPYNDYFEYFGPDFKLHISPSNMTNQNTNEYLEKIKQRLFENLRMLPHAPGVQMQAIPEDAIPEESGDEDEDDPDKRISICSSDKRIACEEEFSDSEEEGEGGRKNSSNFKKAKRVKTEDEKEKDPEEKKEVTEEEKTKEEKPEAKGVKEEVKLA

[3] = biological target: T3, Protein deacetylase HDAC6 (Homo sapiens, UniProt Q9UBN7); test: Inhibition of recombinant HDAC6 (unknown origin) using AMC-K(Ac)GL as substrate by fluorescence based analysis
T3 sequence (Q9UBN7 whole entry): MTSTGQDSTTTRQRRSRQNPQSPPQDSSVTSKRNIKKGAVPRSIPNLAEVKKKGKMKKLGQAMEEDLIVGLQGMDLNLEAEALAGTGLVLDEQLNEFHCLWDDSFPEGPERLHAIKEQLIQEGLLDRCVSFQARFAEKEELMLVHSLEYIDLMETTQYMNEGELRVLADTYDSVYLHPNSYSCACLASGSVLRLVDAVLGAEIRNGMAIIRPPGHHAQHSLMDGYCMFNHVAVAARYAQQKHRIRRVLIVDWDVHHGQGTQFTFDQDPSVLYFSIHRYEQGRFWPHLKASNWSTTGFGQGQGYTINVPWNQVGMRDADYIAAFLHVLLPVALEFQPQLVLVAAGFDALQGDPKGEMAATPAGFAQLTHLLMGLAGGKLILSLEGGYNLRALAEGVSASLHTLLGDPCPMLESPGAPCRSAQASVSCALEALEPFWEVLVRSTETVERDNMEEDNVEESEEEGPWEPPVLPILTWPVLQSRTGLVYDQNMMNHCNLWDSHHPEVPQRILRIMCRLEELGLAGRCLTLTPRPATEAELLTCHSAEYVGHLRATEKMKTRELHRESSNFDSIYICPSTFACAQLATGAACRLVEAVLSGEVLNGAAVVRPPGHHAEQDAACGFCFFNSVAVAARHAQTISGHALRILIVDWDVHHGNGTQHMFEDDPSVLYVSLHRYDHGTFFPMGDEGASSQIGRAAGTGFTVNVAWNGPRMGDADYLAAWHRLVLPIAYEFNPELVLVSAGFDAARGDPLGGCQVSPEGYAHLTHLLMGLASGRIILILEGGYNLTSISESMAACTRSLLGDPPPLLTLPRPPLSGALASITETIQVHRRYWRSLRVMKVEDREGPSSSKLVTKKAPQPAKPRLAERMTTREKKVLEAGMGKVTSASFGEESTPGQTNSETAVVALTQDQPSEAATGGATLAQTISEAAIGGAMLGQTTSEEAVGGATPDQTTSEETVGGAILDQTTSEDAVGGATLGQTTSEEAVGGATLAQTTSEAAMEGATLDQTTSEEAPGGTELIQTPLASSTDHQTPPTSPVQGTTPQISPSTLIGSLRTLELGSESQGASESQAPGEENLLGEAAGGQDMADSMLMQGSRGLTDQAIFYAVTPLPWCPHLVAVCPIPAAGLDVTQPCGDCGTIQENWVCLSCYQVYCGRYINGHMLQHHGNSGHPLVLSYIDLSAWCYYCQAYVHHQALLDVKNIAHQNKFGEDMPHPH

HT-29 = test: Inhibition of colony formation in human HT-29 cells at 0.5 to 5 uM measured after 10 days by methylene blue staining based analysis relative to control; type: functional; conditions: dose 0.5-5 µM, time 10 day
[4] = Inhibition of HDAC in Sprague-Dawley rat hepatocytes using Fluor de Lys as substrate incubated for 15 mins by fluorometric assay; type: cell-based; conditions: Hepatocyte, 0.25 h
MCF7 [5] = test: cells; conditions: Homo sapiens, MCF7, 72 h
Description: Antiproliferative activity against human MCF7 cells assessed as cell growth inhibition measured after 72 hrs by MTT assay

HepG2 [6] = test: cells; conditions: Homo sapiens, HepG2, 72 h
Description: Antiproliferative activity against human HepG2 cells assessed as cell growth inhibition measured after 72 hrs by MTT assay

MCF10 = test: Antiproliferative activity against human MCF10 cells assessed as cell growth inhibition; type: functional, cell-based
AGS = test: Antiproliferative activity against human AGS cells assessed as cell growth inhibition; type: functional, cell-based
HepG2 [7] = test: Antiproliferative activity against human HepG2 cells assessed as cell growth inhibition; type: functional, cell-based
Hep 3B2 = test: Antiproliferative activity against human Hep3B cells assessed as cell growth inhibition; type: functional, cell-based
Huh-7 = test: Antiproliferative activity against human Huh-7 cells assessed as cell growth inhibition; type: functional, cell-based
HA22T cell line = test: Antiproliferative activity against human HA22T cell line assessed as cell growth inhibition; type: functional, cell-based
[8] = Cytotoxicity against human CCD-18Co assessed as cell growth inhibition; type: toxicity, cell-based; conditions: CCD-18Co cells
MCF7 [9] = test: cells; conditions: Homo sapiens
Tubulin beta = test: Inhibition of beta-tubulin polymerization in human MCF7 cells using TMB as substrate incubated for 2 hrs by spectrophotometry analysis; type: cell-based
Histone deacetylase 1 [10] = biological target: T2, Histone deacetylase 1; test: Inhibition of HDAC1 in human MCF7 cells using TMB as substrate incubated for 2 hrs by ELISA analysis; type: cell-based
Histone deacetylase 2 [11] = biological target: T4, Histone deacetylase 2 (Homo sapiens, UniProt Q92769); test: Inhibition of HDAC2 in human MCF7 cells using TMB as substrate incubated for 2 hrs by ELISA analysis; type: cell-based
T4 sequence (Q92769 whole entry): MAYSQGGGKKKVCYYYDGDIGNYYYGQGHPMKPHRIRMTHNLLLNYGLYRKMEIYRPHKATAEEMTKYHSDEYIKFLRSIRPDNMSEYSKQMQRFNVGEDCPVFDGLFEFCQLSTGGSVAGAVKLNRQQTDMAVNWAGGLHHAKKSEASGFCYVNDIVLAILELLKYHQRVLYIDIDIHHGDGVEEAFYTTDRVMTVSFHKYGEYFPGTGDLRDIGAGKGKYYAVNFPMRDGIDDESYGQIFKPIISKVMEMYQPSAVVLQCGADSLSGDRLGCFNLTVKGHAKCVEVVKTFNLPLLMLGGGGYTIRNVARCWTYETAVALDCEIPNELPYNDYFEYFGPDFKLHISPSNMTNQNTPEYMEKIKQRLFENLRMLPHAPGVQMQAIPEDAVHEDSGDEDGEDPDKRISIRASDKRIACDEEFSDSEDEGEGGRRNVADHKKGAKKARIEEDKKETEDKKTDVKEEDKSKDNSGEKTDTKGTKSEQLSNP

P388 = test: Cytotoxicity against mouse P388 cells assessed as cell growth inhibition; type: functional, cell-based
Histone deacetylase 1 [12] = biological target: T2, Histone deacetylase 1; test: Inhibition of human recombinant His-tagged HDAC1 expressed in baculovirus expression system incubated for 2 hrs by fluorescence based analysis
Histone deacetylase 2 [13] = biological target: T4, Histone deacetylase 2; test: Inhibition of human recombinant full-length His-tagged HDAC2 expressed in baculovirus expression system incubated for 2 hrs by fluorescence based analysis
Histone deacetylase 3 = Histone deacetylase 3 (Homo sapiens, UniProt O15379); test: Inhibition of human recombinant His-tagged HDAC3 expressed in baculovirus expression system incubated for 2 hrs by fluorescence based analysis
Histone deacetylase 3, sequence (O15379 whole entry): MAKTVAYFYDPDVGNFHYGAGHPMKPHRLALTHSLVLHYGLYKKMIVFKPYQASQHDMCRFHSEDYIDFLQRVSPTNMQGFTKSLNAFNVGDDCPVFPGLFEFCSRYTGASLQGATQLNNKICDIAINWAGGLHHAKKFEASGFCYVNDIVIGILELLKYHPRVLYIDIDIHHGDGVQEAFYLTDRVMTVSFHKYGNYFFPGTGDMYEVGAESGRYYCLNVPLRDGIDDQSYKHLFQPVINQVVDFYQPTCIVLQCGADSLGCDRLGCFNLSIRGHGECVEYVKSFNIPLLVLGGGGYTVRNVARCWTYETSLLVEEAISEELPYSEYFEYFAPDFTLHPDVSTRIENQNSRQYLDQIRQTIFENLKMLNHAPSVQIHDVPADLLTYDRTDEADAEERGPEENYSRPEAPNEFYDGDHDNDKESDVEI

Histone deacetylase 8 = Histone deacetylase 8 (Homo sapiens, UniProt Q9BY41); test: Inhibition of human recombinant His-tagged HDAC8 expressed in Escherichia coli incubated for 2 hrs by fluorescence based analysis
Histone deacetylase 8, sequence (Q9BY41 whole entry): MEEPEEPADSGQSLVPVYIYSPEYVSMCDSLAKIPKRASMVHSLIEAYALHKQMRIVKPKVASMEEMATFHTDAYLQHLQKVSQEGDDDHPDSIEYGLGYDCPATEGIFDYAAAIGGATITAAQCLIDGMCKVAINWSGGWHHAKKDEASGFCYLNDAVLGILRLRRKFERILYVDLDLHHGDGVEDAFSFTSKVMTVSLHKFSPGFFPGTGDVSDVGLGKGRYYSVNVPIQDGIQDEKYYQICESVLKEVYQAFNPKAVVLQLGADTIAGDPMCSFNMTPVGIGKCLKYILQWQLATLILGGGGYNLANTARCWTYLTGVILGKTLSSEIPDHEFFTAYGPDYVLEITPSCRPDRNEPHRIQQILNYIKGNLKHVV

MDA-MB-231 = test: Antiproliferative activity against human MDA-MB-231 cells assessed as cell growth inhibition; type: functional, cell-based
T47D [14] = test: Antiproliferative activity against human T47D cells assessed as cell growth inhibition; type: functional, cell-based
BT-20 = test: Antiproliferative activity against human BT-20 cells assessed as cell growth inhibition; type: functional, cell-based
T47D [15] = test: Antiproliferative activity against human T47D cells assessed as cell growth inhibition by burton method; type: functional, cell-based
BT-474 = test: Antiproliferative activity against human BT-474 cells assessed as cell growth inhibition by SRB assay; type: functional, cell-based
MCF7 [16] = test: cells; conditions: Homo sapiens; remark: listed apart in the source
Description: Antiproliferative activity against human MCF7 cells assessed as cell growth inhibition by SRB assay

Histone deacetylase 1 [17] = biological target: T2, Histone deacetylase 1; test: Inhibition of HDAC1 (unknown origin)
[18] = Half life in mouse; type: ADME, organism-based; conditions: in vivo
Histone deacetylase 4 [19] = biological target: T1, Histone deacetylase 4; test: Inhibition of HDAC4 (unknown origin)
Histone deacetylase 5 = Histone deacetylase 5 (Homo sapiens, UniProt Q9UQL6); test: Inhibition of HDAC5 (unknown origin)
[20] = biological target: T3, Protein deacetylase HDAC6; test: Inhibition of HDAC6 (unknown origin)

T1 sequence (P56524 whole entry): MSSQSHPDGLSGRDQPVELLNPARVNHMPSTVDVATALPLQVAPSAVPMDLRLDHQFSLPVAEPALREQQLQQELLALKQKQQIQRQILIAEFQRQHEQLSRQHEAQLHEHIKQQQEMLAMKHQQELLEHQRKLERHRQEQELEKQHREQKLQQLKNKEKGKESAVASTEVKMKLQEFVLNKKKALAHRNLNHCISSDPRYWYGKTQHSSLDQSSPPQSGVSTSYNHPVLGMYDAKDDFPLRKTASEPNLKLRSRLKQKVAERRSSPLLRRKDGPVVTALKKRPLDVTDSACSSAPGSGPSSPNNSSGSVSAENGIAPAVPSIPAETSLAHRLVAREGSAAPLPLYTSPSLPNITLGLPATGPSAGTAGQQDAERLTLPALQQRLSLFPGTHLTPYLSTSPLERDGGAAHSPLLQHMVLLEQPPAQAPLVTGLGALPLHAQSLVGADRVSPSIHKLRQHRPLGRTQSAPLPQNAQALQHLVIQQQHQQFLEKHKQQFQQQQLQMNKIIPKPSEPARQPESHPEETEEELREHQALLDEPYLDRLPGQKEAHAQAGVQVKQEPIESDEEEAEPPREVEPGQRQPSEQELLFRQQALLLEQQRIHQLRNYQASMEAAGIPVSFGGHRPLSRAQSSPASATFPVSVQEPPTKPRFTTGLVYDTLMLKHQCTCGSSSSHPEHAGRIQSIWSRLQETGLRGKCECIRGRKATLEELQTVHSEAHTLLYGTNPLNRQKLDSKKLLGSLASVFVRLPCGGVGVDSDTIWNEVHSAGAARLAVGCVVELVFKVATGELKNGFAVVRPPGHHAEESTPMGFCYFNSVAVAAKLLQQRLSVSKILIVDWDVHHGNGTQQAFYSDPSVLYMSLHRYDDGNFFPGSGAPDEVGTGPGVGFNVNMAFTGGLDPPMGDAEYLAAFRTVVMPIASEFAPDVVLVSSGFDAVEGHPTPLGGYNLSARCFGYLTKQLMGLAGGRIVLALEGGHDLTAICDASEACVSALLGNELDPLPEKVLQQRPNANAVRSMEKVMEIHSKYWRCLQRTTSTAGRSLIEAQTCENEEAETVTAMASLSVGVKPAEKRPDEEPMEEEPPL

Question: For `C[C@@H](O)C(=O)CCCCC[C@@H]1NC(=O)[C@H]2CCCN2C(=O)[C@H](Cc2ccccc2)NC(=O)[C@H](Cc2ccccc2)NC1=O`, which IC50 (Histone deacetylase 4 [1]) is on record?
Answer: 280 nM

Question: What does the source list for `CC(C)(C)OC(=O)Nc1cccc(C(=O)/C=C/c2ccc(/C=C/C(=O)NO)cc2)c1`?
Answer: IC50 (Histone deacetylase 1 [2]): 2900 nM; IC50 [3]: 10 nM; inhibition (INH) (HT-29): <=60%

Question: Which IC50 [4] does the source give for `CN(C)c1ccc(C(=O)NCCCCCC(=O)NO)cc1` here?
Answer: 24 nM

Question: Which IC50 (Histone deacetylase 4 [1]) does the source give for `CC[C@]1(C)NC(=O)[C@H](CCCCCC(=O)[C@@H](C)O)NC(=O)[C@H]2CC(C)(C)CN2C(=O)[C@H](Cc2ccccc2)NC1=O` here?
Answer: 90 nM

Question: With `CC[C@]1(C)NC(=O)[C@H](CCCCCC(=O)[C@@H](C)O)NC(=O)[C@H]2CCCN2C(=O)[C@H](Cc2ccccc2)NC1=O` as the molecule, how does the IC50 (Histone deacetylase 4 [1]) read?
Answer: 50 nM

Question: For `C[C@H](O)C(=O)CCCCC[C@@H]1NC(=O)[C@H]2CCCN2C(=O)[C@H](Cc2ccccc2)NC(=O)C(C)(C)NC1=O`, which IC50 (Histone deacetylase 4 [1]) is on record?
Answer: 330 nM

Question: Which IC50 (Histone deacetylase 4 [1]) does the source give for `C[C@@H](O)C(=O)CCCCC[C@@H]1NC(=O)[C@H]2CCCN2C(=O)[C@H](Cc2ccccc2)NC(=O)C(C)(C)NC1=O` here?
Answer: 30 nM

Question: For `CC[C@@H]1NC(=O)[C@H](CCCCCC(=O)[C@H](C)O)NC(=O)[C@H]2CCCN2C(=O)[C@H](Cc2ccccc2)NC1=O`, which IC50 (Histone deacetylase 4 [1]) is on record?
Answer: 1000 nM

Question: With `O=C(/C=C/c1ccc([N+](=O)[O-])cc1)c1ccc(NC(=O)c2ccc(CN3C(=O)c4ccccc4C3=O)cc2)cc1` as the molecule, how does the IC50 (MCF7 [5]) read?
Answer: 9.78 µM

Question: What about the IC50 (HepG2 [6]) of the same molecule?
Answer: 15.8 µM

Question: With `CCC(=O)CCCCC[C@@H]1NC(=O)[C@H]2CCCCN2C(=O)[C@H]([C@@H](C)CC)NC(=O)[C@H](Cc2cc3ccccc3n2OC)NC1=O` as the molecule, how does the IC50 (MCF10) read?
Answer: 190 nM

Question: And the IC50 (AGS)?
Answer: 190 nM

Question: And the IC50 (HepG2 [7])?
Answer: 190 nM

Question: And the IC50 (Hep 3B2)?
Answer: 190 nM

Question: What about the IC50 (Huh-7) of the same molecule?
Answer: 190 nM

Question: And the IC50 (HA22T cell line)?
Answer: 190 nM

Question: What about the IC50 [8] of the same molecule?
Answer: 190 nM

Question: What about the IC50 (MCF7 [9]) of the same molecule?
Answer: 0.19 µM

Question: Which IC50 (Histone deacetylase 4 [1]) does the source give for `Cc1c[nH]c([C@@H]2NC(=O)[C@H](CCCCCC(=O)[C@H](C)O)NC(=O)[C@H]3CCCN3C(=O)[C@H](Cc3ccccc3)NC2=O)n1` here?
Answer: 350000 nM

Question: For `COc1ccc(/C=C/C(=O)c2ccc(NC(=O)c3ccc(CN4C(=O)c5ccccc5C4=O)cc3)cc2)cc1`, which IC50 (MCF7 [5]) is on record?
Answer: 2.41 µM

Question: What about the IC50 (HepG2 [6]) of the same molecule?
Answer: 1.87 µM

Question: What does the source list for `COc1ccc(/C=C/C(=O)c2ccc(NC(=O)c3ccc(CN4C(=O)c5ccccc5C4=O)cc3)cc2)c(OC)c1`?
Answer: IC50 (MCF7 [5]): 2.09 µM; IC50 (HepG2 [6]): 1.75 µM

Question: Which IC50 (MCF7 [5]) does the source give for `O=C(/C=C/c1ccc(Cl)cc1)c1ccc(NC(=O)c2ccc(CN3C(=O)c4ccccc4C3=O)cc2)cc1` here?
Answer: 4.11 µM

Question: What about the IC50 (HepG2 [6]) of the same molecule?
Answer: 3.21 µM

Question: What does the source list for `O=C(/C=C/c1ccccc1)c1ccc(NC(=O)c2ccc(CN3C(=O)c4ccccc4C3=O)cc2)cc1`?
Answer: IC50 (MCF7 [5]): 14.4 µM; IC50 (HepG2 [6]): 12.9 µM

Question: With `O=C(/C=C/c1cc2ccc1CCc1ccc(cc1)CC2)c1ccc(NC(=O)c2ccc(CN3C(=O)c4ccccc4C3=O)cc2)cc1` as the molecule, how does the IC50 (MCF7 [5]) read?
Answer: 5.28 µM

Question: What about the IC50 (HepG2 [6]) of the same molecule?
Answer: 8.47 µM

Question: For `O=C(/C=C/c1cccc2ccccc12)c1ccc(NC(=O)c2ccc(CN3C(=O)c4ccccc4C3=O)cc2)cc1`, which IC50 (MCF7 [5]) is on record?
Answer: 11.3 µM

Question: And the IC50 (HepG2 [6])?
Answer: 8.07 µM

Question: Which IC50 (Tubulin beta) does the source give for `Cc1cc(/C=C/C(=O)c2ccc(NC(=O)c3ccc(CN4C(=O)c5ccccc5C4=O)cc3)cc2)cc(C)c1C` here?
Answer: 2.32 µM

Question: And the IC50 (Histone deacetylase 1 [10])?
Answer: 220 nM

Question: And the IC50 (Histone deacetylase 2 [11])?
Answer: 430 nM

Question: And the IC50 (MCF7 [5])?
Answer: 1.88 µM

Question: And the IC50 (HepG2 [6])?
Answer: 1.62 µM

Question: For `O=C(/C=C/C1Oc2ccccc2O1)c1ccc(NC(=O)c2ccc(CN3C(=O)c4ccccc4C3=O)cc2)cc1`, which IC50 (MCF7 [5]) is on record?
Answer: 3.45 µM

Question: What about the IC50 (HepG2 [6]) of the same molecule?
Answer: 1.96 µM

Question: What does the source list for `O=C(/C=C/c1ccccc1-c1ccco1)c1ccc(NC(=O)c2ccc(CN3C(=O)c4ccccc4C3=O)cc2)cc1`?
Answer: IC50 (MCF7 [5]): 5.44 µM; IC50 (HepG2 [6]): 9.05 µM

Question: For `C[C@H](O)C(=O)CCCCC[C@@H]1NC(=O)[C@H]2CCCN2C(=O)[C@H](Cc2ccccc2)NC(=O)C(C2CCCCC2)(C2CCCCC2)NC1=O`, which IC50 (Histone deacetylase 4 [1]) is on record?
Answer: 670 nM

Question: For `C[C@@H](O)C(=O)CCCCC[C@@H]1NC(=O)[C@H]2CCCN2C(=O)[C@H](Cc2ccccc2)NC(=O)[C@H](n2ccc3ccccc32)NC1=O`, which IC50 (Histone deacetylase 4 [1]) is on record?
Answer: 20 nM

Question: Which IC50 [4] does the source give for `O=C(CCCCCNC(=O)c1cc2ccccc2[nH]1)NO` here?
Answer: 14 nM

Question: With `COc1ccc(/C=C\c2cc(OC)c(OC)c(OC)c2)cc1O` [COMBRETASTATIN A4] as the molecule, how does the IC50 (MCF7 [5]) read?
Answer: 4.85 µM

Question: For `O=C(NCCSSCCNC(=O)/C(Cc1ccc(O)c(Br)c1)=N/O)/C(Cc1ccc(O)c(Br)c1)=N/O` [PSAMMAPLIN A], which IC50 (P388) is on record?
Answer: 0.3 µg/mL (≈ 0.452 µM)

Question: Which IC50 (Histone deacetylase 1 [12]) does the source give for `CCCC(=O)[O-].[Na+]` [SODIUM BUTYRATE] here?
Answer: 16 µM

Question: What about the IC50 (Histone deacetylase 2 [13]) of the same molecule?
Answer: 12 µM

Question: And the IC50 (Histone deacetylase 3)?
Answer: 9 µM

Question: And the IC50 (Histone deacetylase 8)?
Answer: 15 µM

Question: What about the IC50 (MDA-MB-231) of the same molecule?
Answer: 600 µM

Question: What about the IC50 (T47D [14]) of the same molecule?
Answer: 700 µM

Question: And the IC50 (BT-20)?
Answer: 1.4 mM

Question: What about the IC50 (MCF7 [9]) of the same molecule?
Answer: 500 µM

Question: For `CC(/C=C/C(=O)NO)=C\[C@@H](C)C(=O)c1ccc(N(C)C)cc1` [TRICHOSTATIN], which IC50 (T47D [15]) is on record?
Answer: 26.4 nM

Question: What about the IC50 (BT-474) of the same molecule?
Answer: 33.3 nM

Question: And the IC50 (MCF7 [16])?
Answer: 27.7 nM

Question: Which IC50 (Histone deacetylase 1 [17]) does the source give for `CCCC(CCC)C(=O)O` [VALPROIC ACID] here?
Answer: 400 µM

Question: And the t1/2 [18]?
Answer: 7 h

Question: What about the IC50 (Histone deacetylase 4 [19]) of the same molecule?
Answer: 1 mM

Question: What about the IC50 (Histone deacetylase 5) of the same molecule?
Answer: 1 mM

Question: What about the IC50 [20] of the same molecule?
Answer: 1 mM

Question: And the IC50 (MCF7 [9])?
Answer: 230 µM
